According to US7498292B2, “Combinatorial libraries of autoinducer analogs, autoinducer agonists and antagonists, and methods of use thereof” (The Research Foundation of State University of New York, priority 2002, dated 2009):

Assays:
pyocyanin = pyocyanin assay, strain PAO-JP2; type: cell-based, P. aeruginosa PAO-JP2; settings: PAO-JP2, 25 μM each of AI1 and AI2, 18 hours
Experimental: For the pyocyanin assay, cells were grown overnight in LB then washed in fresh media and diluted to an OD600 of 0.05. This culture was grown for 3-4 hours to mid-log phase (OD600 of 0.3-0.5), then diluted to an OD600 of 0.05, and aliquoted to test tubes containing an appropriate amount of test compound(s). Following 18 hours of growth, pyocyanin was extracted from filtered culture supernatants and quantified using standard methods (Essar et al., J. Bacteriol. 172:884-900 (1990), which is hereby incorporated by reference in its entirety).

P. aeruginosa = assay: cell growth in the reporter assay; type: cell-based; settings: concentrations up to 400 μM
Experimental: Based on the above hypothesis, a competition assay of 2 and 3 against AI1, using strain PAO-JP2 (plasI-LVAgfp), was performed. […] It should be noted that this inhibition experiment was performed with competition against 1 μM AI1, a concentration typically produced by wild type P. aeruginosa (Pearson et al., Proc. Natl Acad. Sci. USA 92:1490-1494 (1995), which is hereby incorporated by reference in its entirety). […] It should also be noted that cell growth was not affected by the addition of 2 or 3 at concentrations up to 400 μM. Thus, it appears that compounds 2 and 3 act as specific inhibitors of QS controlled promoters. Compound 6 was also tested for its ability to compete against AI2, but no inhibition of the rhlI-gfp reporter gene was seen.

Elastase B = assay: elastase (Elastin Congo Red) assay, strain PAO-JP2; type: cell-based, P. aeruginosa PAO-JP2; settings: PAO-JP2, 50 μM compound, 5 μM AI1 and 10 μM AI2
Experimental: Pyocyanin, elastase, and biofilm were assayed as previously described (Smith et al., Chem. Biol. 10:81-89 (2003), which is hereby incorporated by reference in its entirety). Elastase activity produced by P. aeruginosa in the presence of AIs and competing 3-oxo-C12-D10 was determined by measuring breakdown of the substrate Elastin Congo Red.
For the elastase B assay, cells (PAO-JP2) were grown overnight in PTSB media (5% Peptone, 0.1% Tryptic Soy Broth) at 37° C., washed and diluted to an OD600 of 0.05, grown to mid-log phase, washed again, and re-suspended to an OD600 of 0.05. The culture was then added to test tubes containing test compound(s) and grown for 6 hours. Elastase B activity was quantified by incubation of 100 μl of filtered culture supernatant with 5 mg Elastin Congo Red substrate and 1 ml of 10 mM Tris pH 7.2, 1 mM CaCl2 for 6 hours at 37° C. with agitation. Elastase B activity is represented by the OD495 of the enzyme assay following reaction quenching with EDTA and centrifugation to remove unreacted substrate, divided by the OD600 of the cell culture. The same assay was run with strain PAO-1, however no exogenous autoinducers were added.

LasR = biological target: T1, LasR (Pseudomonas aeruginosa, UniProt P25084); assay: lasI-gfp reporter antagonist (competition against AI1) assay, PAO-JP2 (plasI-LVAgfp); type: cell-based, P. aeruginosa; settings: 100-fold excess concentration over AI1 (1 μM AI1)
T1 construct: endogenous in cells; host or cells: P. aeruginosa PAO-JP2 (lasI, rhlI) harboring plasI-LVAgfp
Experimental: P. aeruginosa strain PAO-JP2 (lasI, rhlI) (Rahme et al., Science 268:1899-1902 (1995), which is hereby incorporated by reference in its entirety) harboring plasI-LVAgfp (Pearson et al., Proc. Natl Acad. Sci. USA 91:197-201 (1994), which is hereby incorporated by reference in its entirety) was grown at 37° C. in LB with 300 μg/ml carbenicillin. For agonist assays, an overnight culture was diluted to an OD600 of 0.1 and transferred to wells of a 96-well plate on which test compounds had previously been added and dried. The final concentration of each analog tested was roughly 400 μM, although this is an overestimate due to purity issues. Cells were then incubated for 6 hours at 37° C. with vigorous shaking. GFP expression was detected with a Molecular Imager (BioRad) (488 nm excitation and 695 nm bandpass filter) and quantified with ImageQuant software. The OD600 of cultures was determined to normalize GFP expression to cell density.
The methods were the same as described in Example 2 (GFP Reporter Assay), except that 1 μM AI1 was added to each well in combination with the library compound. The fluorescence/OD600 of each compound competing against AI1 was reported relative to the fluorescence/OD600 of the positive control of AI1 alone, which was set to 1. When strain PAO-JP2 (prhlI-LVAgfp) was used, the positive control was 1 μM AI1 and 10 μM AI2. Eight compounds that inhibited reporter gene expression by greater than 50% were identified (see, e.g., FIG. 6).
Reporter strains were grown overnight in LB plus 300 μg/ml carbenicillin at 37° C. and diluted to an OD600 of 0.1. Following an incubation of 1 hour, 200 μl of cell culture was added to individual wells of a 96 well plate containing appropriate amount of test compound(s). Plates were incubated for 6 hours and then scanned for fluorescence emission with a Molecular Imager (488 nm excitation and 695 nm bandpass filter). Fluorescence was quantified with ImageQuant software.

T1 sequence (P25084 whole entry): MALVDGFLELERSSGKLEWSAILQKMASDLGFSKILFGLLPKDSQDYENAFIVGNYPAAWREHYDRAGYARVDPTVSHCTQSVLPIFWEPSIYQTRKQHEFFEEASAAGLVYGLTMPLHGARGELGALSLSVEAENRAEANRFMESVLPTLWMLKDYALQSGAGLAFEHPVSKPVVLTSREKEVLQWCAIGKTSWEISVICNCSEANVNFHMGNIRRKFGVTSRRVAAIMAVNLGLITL

Question: What does the source list for `CCCCCCCCCC(=O)CC(=O)NC1CCCCC1=O` (racemic) [Compound 3, N-(2-oxocyclohexyl)-3-oxododecanamide]?
Answer: effect on pyocyanin production (pyocyanin): nearly complete inhibition; effect on cell growth (P. aeruginosa): not affected; elastase activity, % of the positive control level (Elastase B): 60%; inhibition of GFP expression (lasI-gfp) (LasR): 35%
